{
  "source": "paper PMC2707755",
  "about": "(Organic letters, 2009)",
  "key": {"PP-1 [1]": {"system": "PP-1", "settings": "cited from earlier work"}, "PP-2A [2]": {"system": "PP-2A", "settings": "read-out: IC50 PP-2A; cited from earlier work"}, "[3]": {"assay": "cytotoxicity against MCF7 breast carcinoma cell line", "assay_type": "cell-based", "settings": "human, MCF7 breast carcinoma cells"}, "[4]": {"assay": "cytotoxicity against HT29 colon adenocarcinoma cell line", "assay_type": "cell-based", "settings": "human, HT29 colon adenocarcinoma cells"}, "[5]": {"assay": "cytotoxicity against A549 lung adenocarcinoma cell line", "assay_type": "cell-based", "settings": "human, A549 lung adenocarcinoma cells"}, "PP-1 [6]": {"system": "PP-1", "assay": "PP inhibition assay, PP-1", "assay_type": "biochemical", "settings": "triplicate"}, "PP-2A [7]": {"system": "PP-2A", "assay": "PP inhibition assay, PP-2A", "assay_type": "biochemical", "settings": "triplicate"}, "MCF7 breast carcinoma": {"system": "MCF7 breast carcinoma", "assay": "cytotoxicity against MCF7 breast carcinoma cell line", "assay_type": "cell-based", "settings": "read-out: cytotoxicity IC50, MCF7; MCF7 breast carcinoma"}, "[8]": {"system": "HT29 colon adenocarcinoma", "assay": "cytotoxicity against HT29 colon adenocarcinoma cell line", "assay_type": "cell-based", "settings": "read-out: cytotoxicity IC50, HT29; HT29 colon adenocarcinoma"}, "A549 lung adenocarcinoma": {"system": "A549 lung adenocarcinoma", "assay": "cytotoxicity against A549 lung adenocarcinoma cell line", "assay_type": "cell-based", "settings": "read-out: cytotoxicity IC50, A549; A549 lung adenocarcinoma"}, "Du145 colon carcinoma": {"system": "Du145 colon carcinoma", "assay": "cytotoxicity against Du145 colon carcinoma cell line", "assay_type": "cell-based", "settings": "read-out: cytotoxicity IC50, Du145"}, "[9]": {"settings": "read-out: IC50 PP-1, pH 7.5, pH 7.5"}, "[10]": {"settings": "read-out: IC50 PP-1, pH 8.4, pH 8.4"}},
  "note": "Like-named read-outs stand apart in the source and are kept apart here.",
  "data": [
    {"compound": "tautomycetin [compound 2]", "values": [
      {"measurement": "higher affinity for PP-1 than for PP-2A", "setting": "PP-1 [1]; PP-1 over PP-2A", "result": "~40", "unit": "fold"},
      {"measurement": "IC50", "setting": "PP-1 [1]; read-out: IC50 PP-1", "result": 1.6, "unit": "nM"},
      {"measurement": "IC50", "setting": "PP-2A [2]", "result": 62, "unit": "nM"}
    ]},
    {"compound": "CO[C@H]([C@H](O)CC(=O)[C@@H](C)[C@@H](O)CC[C@@H](C)[C@@H]1O[C@]2(CC[C@@H](C)[C@H](CC[C@H](C)C(C)=O)O2)CC[C@@H]1C)[C@H](OC(=O)C[C@@H](O)C1=C(C)C(=O)OC1=O)C(C)C", "note": "[compound 1, Tautomycin, reference compound]", "values": [
      {"measurement": "IC50", "setting": "[3]", "result": "1800 ± 120", "unit": "nM"},
      {"measurement": "IC50", "setting": "[4]", "result": "590 ± 10", "unit": "nM"},
      {"measurement": "IC50", "setting": "[5]", "result": "1660 ± 140", "unit": "nM"},
      {"measurement": "IC50", "setting": "PP-1 [6]; [9]", "result": 0.58, "unit": "nM"},
      {"measurement": "IC50", "setting": "PP-1 [6]; [10]", "result": 0.86, "unit": "nM"},
      {"measurement": "IC50", "setting": "PP-2A [7]; read-out: IC50 PP-2A, pH 7.5", "result": 15, "unit": "nM"},
      {"measurement": "IC50", "setting": "PP-2A [7]; read-out: IC50 PP-2A, pH 8.4", "result": 42.6, "unit": "nM"}
    ]},
    {"compound": "C3′ epi-TTM", "values": [
      {"measurement": "less effective at PP-1 inhibition than 1", "setting": "PP-1 [1]; relative to 1", "result": "~ 1000 fold"}
    ]},
    {"compound": "3′-deshydroxy-TTM [compound 3]", "values": [
      {"measurement": "IC50", "setting": "MCF7 breast carcinoma", "result": "15600 ± 900", "unit": "nM"},
      {"measurement": "IC50", "setting": "[8]", "result": "7350 ± 190", "unit": "nM"},
      {"measurement": "IC50", "setting": "A549 lung adenocarcinoma", "result": "26600 ± 6400", "unit": "nM"},
      {"measurement": "IC50", "setting": "PP-1 [6]; [9]", "result": 470, "unit": "nM"},
      {"measurement": "IC50", "setting": "PP-1 [6]; [10]", "result": 677, "unit": "nM"},
      {"measurement": "IC50", "setting": "Du145 colon carcinoma", "result": "4240 ± 110", "unit": "nM"},
      {"measurement": "IC50", "setting": "PP-2A [7]; read-out: IC50 PP-2A, pH 7.5", "result": 15600, "unit": "nM"},
      {"measurement": "IC50", "setting": "PP-2A [7]; read-out: IC50 PP-2A, pH 8.4", "result": 15300, "unit": "nM"}
    ]}
  ]
}
